Assay results published in ChEMBL document CHEMBL5678818, “Discovery of potent SOS1 inhibitors that block RAS activation via disruption of the RAS-SOS1 interaction” (Proc Natl Acad Sci U S A, 2019).

Experiments:
[1] = molecular target: Serine/threonine-protein kinase PRP4 homolog (Homo sapiens) (UniProt Q13523); assay: Inhibition of PRP4 (unknown origin) assessed as residual activity at 100 nM by KINOMEscan analysis relative to control
[2] = molecular target: Protein-tyrosine kinase 6 (Homo sapiens) (UniProt Q13882); assay: Inhibition of BRK (unknown origin) assessed as residual activity at 100 nM by KINOMEscan analysis relative to control
[3] = molecular target: Dual specificity protein kinase CLK2 (Homo sapiens) (UniProt P49760); assay: Inhibition of CLK2 (unknown origin) assessed as residual activity at 100 nM by KINOMEscan analysis relative to control
[4] = molecular target: Serine/threonine-protein kinase pim-3 (Homo sapiens) (UniProt Q86V86); assay: Inhibition of PIM3 (unknown origin) assessed as residual activity at 100 nM by KINOMEscan analysis relative to control
[5] = molecular target: Casein kinase II subunit alpha (Homo sapiens) (UniProt P68400); assay: Inhibition of CSNK2A1 (unknown origin) assessed as residual activity at 100 nM by KINOMEscan analysis relative to control
[6] = molecular target: T1, Rhodopsin kinase GRK7 (Homo sapiens) (UniProt Q8WTQ7); assay: Inhibition of GRK7 (unknown origin) assessed as residual activity at 100 nM by KINOMEscan analysis relative to control
T1 sequence (whole entry): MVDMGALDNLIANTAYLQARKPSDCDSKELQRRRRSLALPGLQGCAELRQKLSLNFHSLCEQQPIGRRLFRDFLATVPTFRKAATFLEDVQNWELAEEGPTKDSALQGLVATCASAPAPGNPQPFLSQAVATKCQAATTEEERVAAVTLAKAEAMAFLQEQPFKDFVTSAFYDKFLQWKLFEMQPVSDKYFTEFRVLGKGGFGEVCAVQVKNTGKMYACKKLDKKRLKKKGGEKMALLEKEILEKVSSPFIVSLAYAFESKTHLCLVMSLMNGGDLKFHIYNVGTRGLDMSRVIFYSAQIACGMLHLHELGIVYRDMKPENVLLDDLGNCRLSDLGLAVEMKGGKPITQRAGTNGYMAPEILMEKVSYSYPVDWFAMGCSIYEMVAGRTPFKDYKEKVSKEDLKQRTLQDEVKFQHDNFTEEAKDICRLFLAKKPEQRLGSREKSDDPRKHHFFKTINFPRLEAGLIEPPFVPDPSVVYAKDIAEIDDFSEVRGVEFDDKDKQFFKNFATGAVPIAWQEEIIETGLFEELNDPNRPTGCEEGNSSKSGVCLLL

[7] = tested on: Epidermal growth factor receptor (Homo sapiens), P00533 [UNDEFINED MUTATION]; assay: Inhibition of EGFR S752-I759del mutant (unknown origin) assessed as residual activity at 100 nM by KINOMEscan analysis relative to control
[8] = molecular target: Homeodomain-interacting protein kinase 2 (Homo sapiens) (UniProt Q9H2X6); assay: Inhibition of HIPK2 (unknown origin) assessed as residual activity at 100 nM by KINOMEscan analysis relative to control
[9] = molecular target: T2, Serine/threonine-protein kinase ICK (Homo sapiens) (UniProt Q9UPZ9); assay: Inhibition of ICK (unknown origin) assessed as residual activity at 100 nM by KINOMEscan analysis relative to control
T2 sequence (whole entry): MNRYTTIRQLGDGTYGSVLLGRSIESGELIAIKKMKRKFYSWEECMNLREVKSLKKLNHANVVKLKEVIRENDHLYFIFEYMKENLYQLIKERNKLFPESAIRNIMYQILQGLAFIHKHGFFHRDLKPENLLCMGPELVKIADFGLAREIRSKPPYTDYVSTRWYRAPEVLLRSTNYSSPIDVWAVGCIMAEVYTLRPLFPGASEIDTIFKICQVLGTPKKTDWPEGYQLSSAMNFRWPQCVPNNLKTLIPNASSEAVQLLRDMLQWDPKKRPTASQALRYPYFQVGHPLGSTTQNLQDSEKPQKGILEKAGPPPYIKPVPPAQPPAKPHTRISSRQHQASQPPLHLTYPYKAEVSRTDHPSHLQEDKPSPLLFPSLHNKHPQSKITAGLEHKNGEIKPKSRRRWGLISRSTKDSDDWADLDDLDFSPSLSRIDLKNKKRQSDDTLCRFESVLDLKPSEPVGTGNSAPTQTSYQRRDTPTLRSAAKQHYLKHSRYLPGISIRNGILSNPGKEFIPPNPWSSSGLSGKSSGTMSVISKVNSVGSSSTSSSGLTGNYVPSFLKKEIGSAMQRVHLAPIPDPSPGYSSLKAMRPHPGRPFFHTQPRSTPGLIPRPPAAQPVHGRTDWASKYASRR

[10] = molecular target: Citron Rho-interacting kinase (Homo sapiens) (UniProt O14578); assay: Inhibition of CIT (unknown origin) assessed as residual activity at 100 nM by KINOMEscan analysis relative to control
[11] = tested on: Mast/stem cell growth factor receptor Kit (Homo sapiens), P10721 [L576P]; assay: Inhibition of KIT L576P mutant (unknown origin) assessed as residual activity at 100 nM by KINOMEscan analysis relative to control
[12] = tested on: Epidermal growth factor receptor (Homo sapiens), P00533 [UNDEFINED MUTATION]; assay: Inhibition of EGFR E746-A750del mutant (unknown origin) assessed as residual activity at 100 nM by KINOMEscan analysis relative to control
[13] = tested on: GTPase KRas (Homo sapiens), P01116 [G12C]; assay: Stabilization of N-terminal GST-tagged recombinant human KRAS G12C mutant (1 to 169 residues) expressed in Escherichia coli assessed as change in melting temperature at 100 uM with heating from 25 to 85 degreeC by thermal shift assay

SMILES | Activity [1] [%] | Activity [2] [%] | Activity [3] [%] | Activity [4] [%] | Activity [5] [%] | Activity [6] [%] | Activity [7] [%] | Activity [8] [%] | Activity [9] [%] | Activity [10] [%] | Activity [11] [%] | Activity [12] [%] | ΔTm [13] [°C]
COc1cc2ncnc(N[C@H](C)c3cccc4ccccc34)c2cc1OC | 95 | 80 | 100 | 87 | 96 | 84 | 93 | 93 | 90 | 83 | 85 | 88 | –
CNCc1ccccc1-c1csc([C@@H](C)Nc2nc(C)nc3cc(OC)c(OC)cc23)c1 [BAY-293] | – | – | – | – | – | – | – | – | – | – | – | – | 0.21
